From patent US8980886B2, “Anthranilic acid derivatives” (Bayer Cropscience AG, priority 2010, dated 2015) come the findings set out here.

In data set [1] the test system is Lucilia cuprina. As to the kind of experiment: Lucilia cuprina test (LUCICU). It counts as in vivo. As to conditions: 48 h, treated horse meat, larvae, after 2 days, read-out: kill in %. As to the method:
Solvent: dimethyl sulphoxide To produce a suitable preparation of active compound, 10 mg of active compound are mixed with 0.5 ml of dimethyl sulphoxide and the concentrate is diluted with water to the desired concentration. Vessels containing horse meat treated with the active compound preparation of the desired concentration are populated with about 20 Lucilia cuprina larvae. After 2 days, the kill in % is determined. 100% means that all of the larvae have been killed; 0% means that none of the larvae have been killed.

Data set [2] relates to Spodoptera frugiperda. The data set is described as follows: Spodoptera frugiperda test (SPODFR spray treatment). It counts as in vivo. As to conditions: foliar, 168 h, sprayed maize leaf discs, after 7 days, read-out: effect in % (caterpillars killed). As to the method:
Solvents: 78.0 parts by weight of acetone 1.5 parts by weight of dimethylformamide Emulsifier: 0.5 part by weight of alkylaryl polyglycol ether To produce a suitable preparation of active compound, 1 part by weight of active compound is mixed with the stated amount of solvents and emulsifier, and the concentrate is diluted with emulsifier-containing water to the desired concentration. Discs of maize leaves (Zea mays) are sprayed with an active compound preparation of the desired concentration and, after drying, populated with caterpillars of the armyworm (Spodoptera frugiperda). After 7 days, the effect in % is determined 100% means that all caterpillars have been killed; 0% means that none of the caterpillars have been killed.

The test system of data set [3] is Boophilus microplus. As to the kind of experiment: Boophilus microplus test (BOOPMI injection). Format: in vivo. To be noted: 20 μg/animal, injection into the abdomen, after 7 days. As to the method: Solvent: dimethyl sulphoxide To produce a suitable preparation of active compound, 10 mg of active compound are mixed with 0.5 ml of solvent and the concentrate is diluted with solvent to the desired concentration. The active compound solution is injected into the abdomen (Boophilus microplus), and the animals are transferred into dishes and stored in a climate-controlled room. The activity is assessed by […] of fertile eggs. After 7 days, the effect in % is determined. 100% means that none of the ticks has laid any fertile eggs.

Data set [4] has as its system Phaedon cochleariae. As to the kind of experiment: Phaedon test (PHAECO spray treatment). It counts as in vivo. To be noted: 168 h, sprayed Chinese cabbage discs, after 7 days, read-out: activity in % (beetle larvae killed). The procedure: Solvents: 78.0 parts by weight of acetone 1.5 parts by weight of dimethylformamide Emulsifier: 0.5 part by weight of alkylaryl polyglycol ether To produce a suitable preparation of active compound, 1 part by weight of active compound is mixed with the stated amount of solvents and emulsifier, and the concentrate is diluted with emulsifier-containing water to the desired concentration. Discs of Chinese cabbage (Brassica pekinensis) are sprayed with an active compound preparation of the desired concentration and, after drying, populated with larvae of the mustard beetle (Phaedon cochleariae). After 7 days, the activity in % is determined. 100% means that all beetle larvae have been killed; 0% means that none of the beetle larvae have been killed.

Data set [5] can be described thus: logP by HPLC on reversed-phase columns (C 18), EEC Directive 79/831 Annex V.A8. It counts as physicochemical. To be noted: reversed-phase HPLC column (C 18), pH 2.7, HPLC, reversed-phase C 18, acidic range pH 2.7; table of compounds; read-out: log P. The procedure: The logP values reported in the table above and in the Preparation Examples were determined in accordance with EEC Directive 79/831 Annex V.A8 by HPLC (High Performance Liquid Chromatography) on reversed-phase columns (C 18), with the following methods: The LC-MS determination in the acidic range is carried out at pH 2.7 using the mobile phases 0.1% aqueous formic acid and acetonitrile (contains 0.1% formic acid), linear gradient from 10% acetonitrile to 95% acetonitrile Calibration was carried out using unbranched alkan-2-ones (having from 3 to 16 carbon atoms) with known logP values (the logP values were determined by the retention times using linear interpolation between two successive alkanones).

Data set [6] relates to Musca domestica. The data set is described as follows: Musca domestica test (MUSCDO). It counts as in vivo. To be noted: 100 ppm, treated sponge, adult flies, after 2 days. The procedure:
Solvent: dimethyl sulphoxide To produce a suitable preparation of active compound, 10 mg of active compound are mixed with 0.5 ml of dimethyl sulphoxide and the concentrate is diluted with water to the desired concentration. Vessels containing a sponge treated with the active compound preparation of the desired concentration are populated with adult Musca domestica. After 2 days, the kill in % is determined. 100% means that all of the flies have been killed; 0% means that none of the flies have been killed.

Consider `Cc1cc(C#N)cc(C(=O)NC(C)C)c1NC(=O)c1cnc(Cn2nnc(C(F)(F)F)n2)nc1-c1ccccc1Cl` [Compound 37], for which the pest or weed control at 100 ppm in data set [1] stood at 100%. For the same molecule, the pest or weed control at 100 g/ha in data set [2] and in data set [4] was 100% in each case. For the same molecule, the “effect in % (no fertile eggs laid)” value in data set [3] is on record as 100%. Also, in data set [5], the chromatographic logP came out at 3.5. Besides, the kill in % in data set [6] is recorded as 100%.
